How the values were obtained:
Details in all cases: biochemical
His-Brd4(44-477) = His-Brd4(44-477) (Homo sapiens (Human), UniProt O60885); experiment: TR-FRET in-vitro binding assay for BRD4
Experimental: (§1) TR-FRET In-Vitro Binding Assays for BRD2, BRD3, and BRD4:
(§2) All assays were performed in 384-well microtiter plates. Each assay plate contained 8-point serial dilutions for 40 test compounds, plus 16 high- and 16 low controls. Liquid handling and incubation steps were done on an Innovadyne Nanodrop Express equipped with a robotic arm (Thermo CatX, Perkin Elmer/Caliper Twister II) and an incubator (Liconic STX40, Thermo Cytomat 2C450). The assay plates were prepared by addition of 50 nl per well of compound solution in 90% DMSO HummingBird nanodispenser (Zinsser Analytic). The assay was started by stepwise addition of 4.5 μL per well of bromo domain protein (50 mM HEPES, pH 7.5, 0.005% Tween20, 0.1% BSA, 50 mM NaCl, 45 nM His-Brd2(60-472) or 45 nM His-Brd3(20-477) or 45 nM His-Brd4(44-477) all proteins produced in-house) and 4.5 μL per well of peptide solution (50 mM HEPES, pH 7.5, 0.005% Tween20, 0.1% BSA, 50 mM NaCl, 60 nM acetyl-histone H4 (AcK 5, 8, 12, 16) (Biosyntan GmbH)). Reactions were incubated at 30° C. for 35 minutes. Subsequently 4.5 μL per well detection mix (50 mM HEPES, pH 7.5, 0.005% Tween20, 0.1% BSA, 50 mM NaCl, 3 nM Eu-labeled anti-His6 antibody, 21 nM streptavidin-allophycocyanin) were added. After minutes incubation at 30° C., plates were measured in a Perkin Elmer EnVision multilabel reader.
(§3) Test compounds were dissolved in DMSO (10 mM) and transferred into 1.4 mL flat bottom or V-shaped Matrix tubes carrying a unique 2D matrix. The stock solutions were stored at […] if not used immediately. For the test procedure the vials were defrosted and identified by a scanner whereby a working sheet was generated that guided the subsequent working steps. Compound dilutions were made in 96 well plates. This format enabled the assay of maximally […] at 8 concentrations (single points) including 4 reference compounds, if desired (known BET inhibitors from the prior art, for this and other assays of the type disclosed herein). The dilution protocol included the production of “pre-dilution plates”, “master plates” and “assay plates”.
(§4) Polypropylene 96-well plates were used as pre-dilution plates. […] All dilution steps were done on a HamiltonSTAR robot.
(§5) 30 μL of individual compound dilutions including standard compound and controls of the 4 “pre-dilution plates” were transferred into a 384-well “master plate” including the following concentrations 10000, […], 1000, 300, 100, 30, 10 and 3 μM, respectively in 90% of DMSO.
(§6) Identical “assay plates” were then prepared by pipetting 50 nL each of compound dilutions of the “master plates” into 384-well “assay plates” by means of a HummingBird 384-channel dispenser. These plates were used directly for the assay which was performed in a total volume of 13.55 μL.

[1] = biological target: His-CREBBP (1081-1197) bromodomain (Homo sapiens (Human), UniProt Q92793); experiment: AlphaScreen in-vitro binding assay for CREBBP
Experimental: AlphaScreen In-Vitro Binding Assay for CREBBP
In order to assess bromodomain selectivity, we set up a binding assay using the bromodomain encoded by the CREBBP gene. […] Reactions were incubated at 30° C. for 35 minutes. Subsequently 4.5 μL per well detection mix (50 mM HEPES, pH 7.5, 0.005% Tween20, 0.02% BSA, 150 mM NaCl, 45 μg/ml Ni-chelate acceptor beads, 45 μg/mL streptavidin-donor beads) (Perkin Elmer)) were added. After 60 minutes incubation at room temperature, plates were measured in a Perkin Elmer EnVision multilabel reader. IC50 values were determined from percent inhibition values at different compound concentrations by non-linear regression analysis.
as §3, §4
These plates were used directly for the assay which was performed in a total volume of 13.55 μL.

His-Brd2(60-472) = His-Brd2(60-472) (Homo sapiens (Human), UniProt P25440); experiment: TR-FRET in-vitro binding assay for BRD2
Experimental: as §1, §2, §3, §4, §5, §6

His-Brd3(20-477) = His-Brd3(20-477) (Homo sapiens (Human), UniProt Q15059); experiment: TR-FRET in-vitro binding assay for BRD3
Experimental: as §1, §2, §3, §4, §5, §6

Sequence of His-Brd2(60-472) (P25440 60-472): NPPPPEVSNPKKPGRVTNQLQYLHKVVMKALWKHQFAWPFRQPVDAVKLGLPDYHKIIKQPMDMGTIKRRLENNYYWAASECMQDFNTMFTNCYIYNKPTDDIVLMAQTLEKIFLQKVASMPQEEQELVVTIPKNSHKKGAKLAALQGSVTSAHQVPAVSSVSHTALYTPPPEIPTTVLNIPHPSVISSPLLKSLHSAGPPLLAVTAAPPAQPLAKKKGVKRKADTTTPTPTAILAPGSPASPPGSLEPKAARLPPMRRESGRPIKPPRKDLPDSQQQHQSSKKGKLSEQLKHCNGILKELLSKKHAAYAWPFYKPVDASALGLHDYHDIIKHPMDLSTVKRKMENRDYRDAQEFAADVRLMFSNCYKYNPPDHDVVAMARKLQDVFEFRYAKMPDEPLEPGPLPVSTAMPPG
Sequence of His-Brd3(20-477) (Q15059 20-477): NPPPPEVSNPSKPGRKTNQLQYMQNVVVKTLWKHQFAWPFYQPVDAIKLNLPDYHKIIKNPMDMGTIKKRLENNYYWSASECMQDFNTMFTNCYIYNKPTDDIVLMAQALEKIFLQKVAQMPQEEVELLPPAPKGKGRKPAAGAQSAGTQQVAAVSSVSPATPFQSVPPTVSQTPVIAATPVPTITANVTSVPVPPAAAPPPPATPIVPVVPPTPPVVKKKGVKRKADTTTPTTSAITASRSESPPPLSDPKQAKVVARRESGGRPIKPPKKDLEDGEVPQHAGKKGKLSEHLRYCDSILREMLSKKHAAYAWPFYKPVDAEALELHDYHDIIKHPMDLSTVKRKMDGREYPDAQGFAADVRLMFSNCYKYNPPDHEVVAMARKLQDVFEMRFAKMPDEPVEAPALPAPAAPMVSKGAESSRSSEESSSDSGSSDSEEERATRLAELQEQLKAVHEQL
Sequence of His-CREBBP (1081-1197) bromodomain (Q92793 1081-1197): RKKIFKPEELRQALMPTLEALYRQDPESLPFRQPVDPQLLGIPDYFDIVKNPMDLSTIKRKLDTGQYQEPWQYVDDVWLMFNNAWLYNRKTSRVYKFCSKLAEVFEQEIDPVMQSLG

| Compound | IC50 (His-Brd4(44-477)) [µM] | IC50 [1] [µM] | IC50 (His-Brd2(60-472)) [µM] | IC50 (His-Brd3(20-477)) [µM] |
| --- | --- | --- | --- | --- |
| Cc1c2c(nn1C1CC1)C(=O)N(c1cc(Cl)c(=O)n(C)c1)C2c1ccc(Cl)cc1 (stereo not drawn) [Example 17, 5-(5-chloro-1-methyl-6-oxo-1,6-dihydropyridin-3-yl)-4-(4-chlorophenyl)-2-cyclopropyl-3-methyl-4,5-dihydropyrrolo[3,4-c]pyrazol-6(2H)-one] | 0.14 | 1.3 | 0.18 | 0.097 |
| Cc1nn(C2CC2)c2c1[C@@H](c1ccc(F)cc1F)N(c1cc(C)c3nnc(C)n3c1)C2=O [Example 188, (S)-1-cyclopropyl-4-(2,4-difluorophenyl)-5-(3,8-dimethyl-[1,2,4]triazolo[4,3-a]pyridin-6-yl)-3-methyl-4,5-dihydropyrrolo[3,4-c]pyrazol-6(1H)-one] | 0.031 | 19 | 0.041 | 0.04 |
| Cn1cc(N2C(=O)c3nn(C4CC4)cc3C2c2ccc(Cl)cc2)cc(Cl)c1=O (stereo not drawn) [Example 37, 5-(5-chloro-1-methyl-6-oxo-1,6-dihydropyridin-3-yl)-4-(4-chlorophenyl)-2-cyclopropyl-4,5-dihydropyrrolo[3,4-c]pyrazol-6(2H)-one] | 0.17 | 1.2 | 0.14 | 0.14 |
| Cc1cc(N2C(=O)c3nn(C4CC4)c(C)c3C2c2ccc(Cl)cc2)cn(C)c1=O (stereo not drawn) [Example 20, 4-(4-chlorophenyl)-2-cyclopropyl-5-(1,5-dimethyl-6-oxo-1,6-dihydropyridin-3-yl)-3-methyl-4,5-dihydropyrrolo[3,4-c]pyrazol-6(2H)-one] | 0.088 | 1.1 | 0.13 | 0.077 |
| Cc1nn(C2CC2)c2c1C(c1ccc(Cl)cc1)N(c1cc(C)c3nnn(C)c3c1)C2=O (stereo not drawn) [Example 85, 4-(4-chlorophenol)-1-cyclopropyl-5-(1,4-dimethyl-1H-benzo[d][1,2,3]triazol-6-yl)-3-methyl-4,5-dihydropyrrolo[3,4-c]pyrazol-6(1H)-one] | 0.014 | 8.3 | 0.024 | 0.016 |
| CCn1nc(C)c2c1C(=O)N(c1cc(C)c3nnc(C)n3c1)[C@@H]2c1ccc(F)cc1F [Example 191, (S)-4-(2,4-difluorophenyl)-5-(3,8-dimethyl-[1,2,4]triazolo[4,3-a]pyridin-6-yl)-1-ethyl-3-methyl-4,5-dihydropyrrolo[3,4-c]pyrazol-6(1H)-one] | 0.025 | 10 | 0.069 | 0.031 |
| Cc1cc(N2C(=O)c3nn(C4CC4)c(C(F)(F)F)c3C2c2ccc(Cl)cc2)cn(C)c1=O (stereo not drawn) [Example 43, 4-(4-chlorophenyl)-2-cyclopropyl-5-(1,5-dimethyl-6-oxo-1,6-dihydropyridin-3-yl)-3-(trifluoromethyl)-4,5-dihydropyrrolo[3,4-c]pyrazol-6(2H)-one] | 0.12 | 0.66 | 0.1 | 0.11 |

Continued, values first:

| IC50 (His-Brd4(44-477)) [µM] | IC50 [1] [µM] | IC50 (His-Brd2(60-472)) [µM] | IC50 (His-Brd3(20-477)) [µM] | Compound |
| --- | --- | --- | --- | --- |
| 0.1 | 0.45 | 0.091 | 0.089 | CC(C)n1cc2c(n1)C(=O)N(c1cc(Cl)c(=O)n(C)c1)C2c1ccc(Cl)cc1 (stereo not drawn) [Example 42, 5-(5-chloro-1-methyl-6-oxo-1,6-dihydropyridin-3-yl)-4-(4-chlorophenyl)-2-isopropyl-4,5-dihydropyrrolo[3,4-c]pyrazol-6(2H)-one] |
| 0.14 | 3.3 | 0.32 | 0.16 | Cc1cc(N2C(=O)c3nn(C)c(C)c3C2c2ccc(Cl)cc2)cn(C)c1=O (stereo not drawn) [Example 28, 4-(4-chlorophenyl)-5-(1,5-dimethyl-6-oxo-1,6-dihydropyridin-3-yl)-2,3-dimethyl-4,5-dihydropyrrolo[3,4-c]pyrazol-6(2H)-one] |
| 0.039 | 7.1 | 0.053 | 0.044 | CCn1nc(C)c2c1C(=O)N(c1cc(C)c3nnc(C)n3c1)[C@@H]2c1ccc(Cl)cc1F [Example 192, (S)-4-(4-chloro-2-fluorophenyl)-5-(3,8-dimethyl-[1,2,4]triazolo[4,3-a]pyridin-6-yl)-1-ethyl-3-methyl-4,5-dihydropyrrolo[3,4-c]pyrazol-6(1H)-one] |
| 0.022 | 12 | 0.028 | 0.025 | Cc1nn(C2CC2)c2c1[C@@H](c1ccc(Cl)cc1F)N(c1cc(C)c3nnc(C)n3c1)C2=O [Example 190, (S)-4-(4-chloro-2-fluorophenyl)-1-cyclopropyl-5-(3,8-dimethyl-[1,2,4]triazolo[4,3-a]pyridin-6-yl)-3-methyl-4,5-dihydropyrrolo[3,4-c]pyrazol-6(1H)-one] |
| 0.15 | 5.9 | 0.23 | 0.15 | Cc1nn(C2CC2)c2c1C(c1ccc(Cl)cc1)N(c1cc(Cl)c(=O)n(C)c1)C2=O (racemic) [Example 24, 5-(5-chloro-1-methyl-6-oxo-1,6-dihydropyridin-3-yl)-4-(4-chlorophenyl)-1-cyclopropyl-3-methyl-4,5-dihydropyrrolo[3,4-c]pyrazol-6(1H)-one] |
| 0.19 | 3.5 | 0.35 | 0.18 | Cc1c2c(nn1C)C(=O)N(c1cc(Cl)c(=O)n(C)c1)C2c1ccc(Cl)cc1 (stereo not drawn) [Example 6, 5-(5-chloro-1-methyl-6-oxo-1,6-dihydropyridin-3-yl)-4-(4-chlorophenyl)-2,3-dimethyl-4,5-dihydropyrrolo[3,4-c]pyrazol-6(2H)-one] |
| 0.062 | 1.9 | 0.049 | 0.076 | CC(C)n1ncc2c1C(=O)N(c1cc(Cl)c(=O)n(C)c1)C2c1ccc(Cl)cc1 (stereo not drawn) [Example 38, 5-(5-chloro-1-methyl-6-oxo-1,6-dihydropyridin-3-yl)-4-(4-chlorophenyl)-1-isopropyl-4,5-dihydropyrrolo[3,4-c]pyrazol-6(1H)-one] |
| 0.067 | 4.8 | 0.081 | 0.089 | COCc1nn(C2CC2)c2c1C(c1ccc(Cl)cc1)N(c1cc(C)c(=O)n(C)c1)C2=O (racemic) [Example 132, 4-(4-chlorophenyl)-1-cyclopropyl-5-(1,5-dimethyl-6-oxo-1,6-dihydropyridin-3-yl)-3-(methoxymethyl)-4,5-dihydropyrrolo[3,4-c]pyrazol-6(1H)-one] |
| 0.7 | > 37 | 1.2 | 0.92 | Cc1noc2ccc(N3C(=O)c4nn(C)c(C)c4C3c3ccc(Cl)cc3)cc12 (stereo not drawn) [Example 33, 4-(4-chlorophenyl)-2,3-dimethyl-5-(3-methylbenzo[d]isoxazol-5-yl)-4,5-dihydropyrrolo[3,4-c]pyrazol-6(2H)-one] |
| 0.22 | 0.74 | 0.16 | 0.15 | Cn1cc(N2C(=O)c3nn(C4CC4)c(C(F)(F)F)c3C2c2ccc(Cl)cc2)cc(Cl)c1=O (stereo not drawn) [Example 40, 5-(5-chloro-1-methyl-6-oxo-1,6-dihydropyridin-3-yl)-4-(4-chlorophenyl)-2-cyclopropyl-3-(trifluoromethyl)-4,5-dihydropyrrolo[3,4-c]pyrazol-6(2H)-one] |
| > 6.7 | > 5.1 | > 6.7 | > 6.7 | Cc1nn(C2CC2)c2c1[C@H](c1ccc(Cl)cc1)N(c1cc(C)c(=O)n(C)c1)C2=O [Example 48, (S)-4-(4-chlorophenyl)-1-cyclopropyl-5-(1,5-dimethyl-6-oxo-1,6-dihydropyridin-3-yl)-3-methyl-4,5-dihydropyrrolo[3,4-c]pyrazol-6(1H)-one] |

Reference: patent US8975417B2, “Pyrazolopyrrolidine derivatives and their use in the treatment of disease” (Novartis AG, priority 2013, dated 2015)
